Assay results published in patent US20230290452A1, “Electronic Health Record (EHR)-Based Classifier for Acute Respiratory Distress Syndrome (ARDS) Subtyping” (Endpoint Health Inc., priority 2020, published 2023).

How the values were obtained:
Type in all cases: in vivo, human
ARDS patients [1] = experiment: eICU (v1) dataset, statin intervention by Model C.4 subphenotype; parameters: Alive: unit not given here; conditions: for Alive / Dead / Mortality: no consideration to number doses and minimum dose size
Excerpt: The dataset from the eICU (v1) dataset was used for analysis. The intervention of interest was statins.
The individual statins were then examined with no consideration to number of doses and minimum dose size. Using this methodology, there were several differential responses identified (bolded and underlined cells as shown below in Table 81).

ARDS patients [2] = experiment: eICU data filtered for patients without prior indication for statin use, statin intervention by subphenotype
Excerpt: This included patients with history of angina, congestive heart failure, coronary artery bypass grafting, multiple coronary artery bypass, hypertension requiring treatment, previous acute myocardial infarction, peripheral vascular disease, previous coronary intervention procedure, stroke, and/or transient ischemic attack.

ARDS patients [3] = experiment: eICU (v1) dataset, statin intervention by Model C.4 subphenotype; parameters: Alive: unit not given here
ARDS patients [4] = experiment: LASRS study dataset, methylprednisolone vs placebo by Model C.4 subphenotype; conditions: for Dead 90: 1 0, Frequency: dead at 90 days; for Mortality: cohort receiving methylprednisolone
Excerpt: The dataset from the LASRS study was used for analysis. The LASRS study involved administration of corticosteroids, specifically methylprednisolone. K-means clustering was applied using Model C.4 described above in Table 70 and patients were separated into two subphenotypes based on the K-means cluster. Overall mortality was 40% in Subphenotype B and 28.57% in Subphenotype A (p = 0.3287). Within Subphenotype B, mortality rates were 40% regardless of whether the patient received methylprednisolone or a placebo; however, in Subphenotype A, mortality was 50% in the cohort receiving methylprednisolone, compared with 9.09% in the placebo cohort (p = 0.0382).

ARDS patients [5] = experiment: ARMA-KARMA-LARMA study dataset, lisofylline and ketoconazole vs placebo by subphenotype; conditions: active arm vs placebo; for Dead 90: 1 0, Percent: mortality
Excerpt: The dataset from the ARMA-KARMA-LARMA study was used for analysis. Interventions in the study included lisofylline and ketoconazole.

[6] = admitted with drug or initiated during ICU stay, All Patients
[7] = admitted with drug or initiated during ICU stay, Subphenotype A
[8] = admitted with drug or initiated during ICU stay, Subphenotype B
[9] = initiated during ICU stay, All Patients
[10] = initiated during ICU stay, Subphenotype A
[11] = initiated during ICU stay, Subphenotype B
[12] = on drug at time of ICU admit, All Patients
[13] = on drug at time of ICU admit, Subphenotype A
[14] = on drug at time of ICU admit, Subphenotype B
[15] = Subphenotype A patients, not dead at 90 days
[16] = Subphenotype B patients, not dead at 90 days

For CC[C@H](C)C(=O)O[C@H]1C[C@@H](C)C=C2C=C[C@H](C)[C@H](CC[C@@H]3C[C@@H](O)CC(=O)O3)[C@H]21 [Lovastatin], the Alive (ARDS patients [1]; All Patients) was 12, the Dead (ARDS patients [1]; All Patients) was 1 and the Mortality (ARDS patients [1]; All Patients) was 8%. For the same compound, the Alive (ARDS patients [1]; Subphenotype A) was 10, the Dead (ARDS patients [1]; Subphenotype A) was 0 and the Mortality (ARDS patients [1]; Subphenotype A) was 0%. The Alive (ARDS patients [1]; Subphenotype B) was 2, the Dead (ARDS patients [1]; Subphenotype B) was 1 and the Mortality (ARDS patients [1]; Subphenotype B) was 33%.

CCC(C)(C)C(=O)O[C@H]1C[C@@H](C)C=C2C=C[C@H](C)[C@H](CC[C@@H]3C[C@@H](O)CC(=O)O3)[C@H]21 [simvastatin] was tested, and the “Mortality Rate” value (ARDS patients [1]; [6]) was 12.87, the Alive (ARDS patients [1]; All Patients) was 167 and the Dead (ARDS patients [1]; All Patients) was 26. It also gave a Mortality (ARDS patients [1]; All Patients) of 13%, an Alive (ARDS patients [1]; Subphenotype A) of 122 and a Dead (ARDS patients [1]; Subphenotype A) of 10. It also gave a Mortality (ARDS patients [1]; Subphenotype A) of 8%, an Alive (ARDS patients [1]; Subphenotype B) of 45 and a Dead (ARDS patients [1]; Subphenotype B) of 16. For the same compound, the Mortality (ARDS patients [1]; Subphenotype B) was 26%, the Alive (ARDS patients [2]; [6]) was 23 and the Dead (ARDS patients [2]; [6]) was 5. The “Mortality Rate” value (ARDS patients [2]; [6]) was 17.86, the Alive (ARDS patients [2]; [7]) was 15 and the Dead (ARDS patients [2]; [7]) was 1. The “Mortality Rate” value (ARDS patients [2]; [7]) was 6.25, the Alive (ARDS patients [2]; [8]) was 8 and the Dead (ARDS patients [2]; [8]) was 4. The “Mortality Rate” value (ARDS patients [2]; [8]) was 33.33, the Alive (ARDS patients [2]; [9]) was 6 and the Dead (ARDS patients [2]; [9]) was 4. For the same compound, the “Mortality Rate” value (ARDS patients [2]; [9]) was 40, the Alive (ARDS patients [2]; [10]) was 5 and the Dead (ARDS patients [2]; [10]) was 1. The “Mortality Rate” value (ARDS patients [2]; [10]) was 16.67, the Alive (ARDS patients [2]; [11]) was 1 and the Dead (ARDS patients [2]; [11]) was 3. The “Mortality Rate” value (ARDS patients [2]; [11]) was 75, the Alive (ARDS patients [2]; [12]) was 17 and the Dead (ARDS patients [2]; [12]) was 1. The “Mortality Rate” value (ARDS patients [2]; [12]) was 5.56, the Alive (ARDS patients [2]; [13]) was 10 and the Dead (ARDS patients [2]; [13]) was 0. For the same compound, the “Mortality Rate” value (ARDS patients [2]; [13]) was 0, the Alive (ARDS patients [2]; [14]) was 7 and the Dead (ARDS patients [2]; [14]) was 1. The “Mortality Rate” value (ARDS patients [2]; [14]) was 12.5, the Alive (ARDS patients [3]; [6]) was 176 and the Dead (ARDS patients [3]; [6]) was 26. For the same compound, the Alive (ARDS patients [3]; [7]) was 126, the Dead (ARDS patients [3]; [7]) was 10 and the “Mortality Rate” value (ARDS patients [3]; [7]) was 7.35. The Alive (ARDS patients [3]; [8]) was 50, the Dead (ARDS patients [3]; [8]) was 16 and the “Mortality Rate” value (ARDS patients [3]; [8]) was 24.24. The Alive (ARDS patients [3]; [9]) was 89, the Dead (ARDS patients [3]; [9]) was 15 and the “Mortality Rate” value (ARDS patients [3]; [9]) was 14.42. The Alive (ARDS patients [3]; [10]) was 63, the Dead (ARDS patients [3]; [10]) was 6 and the “Mortality Rate” value (ARDS patients [3]; [10]) was 8.70. For the same compound, the Alive (ARDS patients [3]; [11]) was 26, the Dead (ARDS patients [3]; [11]) was 9 and the “Mortality Rate” value (ARDS patients [3]; [11]) was 25.71. For the same compound, the Alive (ARDS patients [3]; [12]) was 87, the Dead (ARDS patients [3]; [12]) was 11 and the “Mortality Rate” value (ARDS patients [3]; [12]) was 11.22. For the same compound, the Alive (ARDS patients [3]; [13]) was 63, the Dead (ARDS patients [3]; [13]) was 4 and the “Mortality Rate” value (ARDS patients [3]; [13]) was 5.97. The Alive (ARDS patients [3]; [14]) was 24, the Dead (ARDS patients [3]; [14]) was 7 and the “Mortality Rate” value (ARDS patients [3]; [14]) was 22.58.

With CC[C@H](C)C(=O)O[C@H]1C[C@H](O)C=C2C=C[C@H](C)[C@H](CC[C@@H](O)C[C@@H](O)CC(=O)O)[C@H]21 [Pravastatin] the Alive (ARDS patients [1]; All Patients) was 29, the Dead (ARDS patients [1]; All Patients) was 6 and the Mortality (ARDS patients [1]; All Patients) was 17%. It also gave an Alive (ARDS patients [1]; Subphenotype A) of 20, a Dead (ARDS patients [1]; Subphenotype A) of 4 and a Mortality (ARDS patients [1]; Subphenotype A) of 17%. The Alive (ARDS patients [1]; Subphenotype B) was 9, the Dead (ARDS patients [1]; Subphenotype B) was 2 and the Mortality (ARDS patients [1]; Subphenotype B) was 18%.

For C[C@H]1C[C@@H]2[C@H]([C@@H](O)C[C@@]3(C)[C@H]2CC[C@]3(O)C(=O)CO)[C@@]2(C)C=CC(=O)C=C12 [methylprednisolone], the “Dead 90: 1 0, Frequency” value (ARDS patients [4]; Subphenotype A patients) was 5, the “Dead 90: 1 0, Row Percent” value (ARDS patients [4]; Subphenotype A patients, mortality) was 50% and the “Dead 90: 0 0, Frequency” value (ARDS patients [4]; [15]) was 5. The “Dead 90: 0 0, Row Percent” value (ARDS patients [4]; [15]) was 50%, the Mortality (ARDS patients [4]; Subphenotype A) was 50% and the “Dead 90: 1 0, Frequency” value (ARDS patients [4]; Subphenotype B patients) was 18. For the same compound, the “Dead 90: 1 0, Percent” value (ARDS patients [4]; Subphenotype B patients, mortality) was 40%, the “Dead 90: 0 0, Frequency” value (ARDS patients [4]; [16]) was 27 and the “Dead 90: 0 0, Percent” value (ARDS patients [4]; [16]) was 60%. For the same compound, the Mortality (ARDS patients [4]; Subphenotype B) was 40%, the “Dead 90: 0 0, Frequency” value (ARDS patients [5]; Subphenotype A patients) was 24 and the “Dead 90: 0 0, Percent” value (ARDS patients [5]; Subphenotype A patients) was 68.57%. The “Dead 90: 1 0, Frequency” value (ARDS patients [5]; Subphenotype A patients) was 11, the “Dead 90: 1 0, Percent” value (ARDS patients [5]; Subphenotype A patients) was 31.43% and the “Dead 90: 0 0, Frequency” value (ARDS patients [5]; Subphenotype B patients) was 15. For the same compound, the “Dead 90: 0 0, Percent” value (ARDS patients [5]; Subphenotype B patients) was 60%, the “Dead 90: 1 0, Frequency” value (ARDS patients [5]; Subphenotype B patients) was 10 and the “Dead 90: 1 0, Percent” value (ARDS patients [5]; Subphenotype B patients) was 40%.
